The structures appear in SMILES notation.

Test [1] concerns fibrosis factors Fn-1 and Col-I, hydroxyproline. As to the kind of experiment: Fibrosis factors (qPCR) and HYP content in lung tissue of silicosis mice. The class given is in vivo, mouse. The conditions noted are these: OTX008 5 mg/kg i.p. The source says:
(§1) Male C57BL/6J mice (aged 8 weeks and weighing 25-30 g) were selected and housed in an SPF grade laboratory animal room, and the model of silicosis was constructed by one-time intratracheal instillation of silica (Si); the mice were divided into four groups (n=9): • 1) PBS+vehicle group: tracheal infusion of PBS, intraperitoneal injection of vehicle (10% DMSO+90% corn oil) 2 weeks later, once every other day for 3 weeks; • 2) PBS+OTX008 group: PBS was given by tracheal infusion, and 2 weeks later, OTX008 (5 mg/kg) was given by intraperitoneal injection, once every other day for 3 weeks; • 3) Si+vehicle group: Silica suspension (300 mg/mL, 40 μL) was given tracheal infusion, and vehicle (10% DMSO+90% corn oil) was given intraperitoneal injection 2 weeks later, once every other day for 3 weeks; and • 4) Si+OTX008 group: Silica suspension (300 mg/mL, 40 μL) was given tracheal infusion, and OTX008 (5 mg/kg) was given intraperitoneal injection 2 weeks later, once every other day for 3 weeks.
(§2) All mice were sacrificed after the administration, and the corresponding samples were collected for detection.
(§3) Lung tissue RNA of all mice was extracted; cDNA was obtained by using a reverse transcription kit (KR103, Tiangen Biotechnology, Beijing, China); qPCR was conducted by using a SYBR Green I Q-PCR Kit (TransGen Biotech, Beijing China); data collection and analysis were conducted by Bio-Rad IQ5 system.
30 mg of mouse lung tissue was detected using an HYP kit (NBP2-59747, Novus Biologicals, Littleton, CO, USA).
(In general: Real-time PCR tracks product formation cycle by cycle.)

The test system of test [2] is silicosis mice. As to the kind of experiment: Pathological staining (HE, Masson) of lung tissue of silicosis mice. The test is classed as in vivo, mouse. The conditions noted are these: OTX008 5 mg/kg i.p.
Source text: as §1
The left lung was fixed in 4% paraformaldehyde for 72 h, dehydrated, paraffin-embedded, sectioned (to 5 μm), and subjected to HE staining and Masson staining, respectively. The HE staining was conducted to calculate the inflammation score based on Szapiel's score. The scoring method included no inflammation (grade 0), mild (grade 1), moderate (grade 2), and severe (grade 3); Masson staining was conducted to evaluate the degree of fibrosis based on the King score. Specifically, different silicosis nodules were evaluated for fibrosis degree according to King's method, with levels ranging from 0 to 5. Each silicosis nodule was assigned a corresponding fibrosis damage score, which was calculated as the fibrosis level score (0-5) multiplied by its percentage of the total area of the tissue section. The sections were scanned, photographed and counted by a 3D HISTECH digital slide scanner.

Test [3] has as its system inflammatory factors IL-1β and IL-6. As to the kind of experiment: Inflammatory factors in silicosis mice (qPCR of lung tissue, ELISA of BALF). The test is classed as in vivo, mouse. As to conditions: OTX008 5 mg/kg i.p.
Source text: as §1, §2
(§4) Concentrations of inflammatory factors IL-1β and IL-6 as well as Galectin-1 in mouse BALF were detected by using ELISA kits.
as §3

Test [4] deals with silicosis mice. Briefly: Pulmonary function test in silicosis mouse model. The conditions noted are these: OTX008 5 mg/kg i.p. The class given is in vivo.
Source text: as §1
Anesthetized mice were fixed on an experimental table, and mouse lung function was detected by a pulmonary function testing system (DSI Buxco, USA). Before experiment, the mouse was anesthetized by intraperitoneal injection of 0.4 mL/100 g 2% pentobarbital, tracheotomy was performed, a trachea cannula was inserted, and a ventilator was connected. Next, FRC, PV, FV, and RC were automatically tested by a PET system. Indicators closely related to lung function changes in silicosis for statistical analysis, including lung volume indicators such as IC, and pulmonary ventilation function tests such as RI, Cdyn, and Cchord.

The test system of another test is Galectin-1. As to the kind of experiment: Galectin-1 levels in silicosis mice (qPCR of lung tissue, ELISA of BALF). The test is classed as in vivo, mouse.
Source text: as §1, §2, §4, §3

Turning to `CN(C)CCNC(=O)COc1c2cccc1Cc1cccc(c1OCC(=O)NCCN(C)C)Cc1cccc(c1OCC(=O)NCCN(C)C)Cc1cccc(c1OCC(=O)NCCN(C)C)C2` [OTX008], in test [1] (HYP kit, FIG. 6C), the “collagen-specific amino acid HYP in lung tissue” value is recorded as “decreased”. Besides, in test [1] (qPCR, FIG. 6A), the “transcription level of Col-I in lung tissue” value is “decreased”. The “transcription level of Fn-1 in lung tissue” value in test [1] (qPCR, FIG. 6B) was “decreased”. Further, in the test with silicosis mice [2], the “progression of pulmonary fibrosis” value is listed as “effectively alleviate”. Further, the “fibrosis lesions (Masson staining)” value in the test on silicosis mice [2] (FIGS. 7A-7D) is recorded as “reduced”. The “inflammatory infiltration in the lungs” value in the test on silicosis mice [2] (HE staining) is “reduced”. In addition, the “degree of the disease (lesions)” value in the test on silicosis mice [2] (Masson staining) is recorded as “alleviated”. Moreover, the “concentration of IL-1β in alveolar lavage fluid” value in test [3] (ELISA, FIG. 4C) is given as “decreased”. Further, the “concentration of IL-6 in alveolar lavage fluid” value in test [3] (ELISA, FIG. 4D) was “decreased”. Moreover, the “transcription level of Il-1β in lung tissue” value in test [3] (qPCR, FIG. 4A) is recorded as “decreased”. Besides, the “transcription level of Il-6 in lung tissue” value in test [3] (qPCR, FIG. 4B) was “decreased”. For the same molecule, in the test with silicosis mice [4] (FIG. 3A), the “lung function: inspiratory capacity (IC)” value was “improved significantly”. Also, the “lung function: inspiratory resistance (RI)” value in the test on silicosis mice [4] (FIG. 3B) is “improved significantly”. The “lung function: dynamic compliance (Cdyn)” value in the test with silicosis mice [4] (FIG. 3C) is “improved significantly”. Besides, the “lung function: quasi-static compliance (Cchord)” value in the test on silicosis mice [4] (FIG. 3D) is listed as “improved significantly”. For the same molecule, the “Galectin-1 translation level in alveolar lavage fluid” value in the test on Galectin-1 (OTX008 5 mg/kg i.p., ELISA) is “decreased”. Moreover, the “Lgals1 transcription level in lung tissue” value in the test with Galectin-1 (OTX008 5 mg/kg i.p., qPCR) was “decreased”. Further, the “levels of Galectin-1 (transcription and translation)” value with Galectin-1 (OTX008 5 mg/kg intraperitoneal, once every other day for 3 weeks) is on record as “effectively inhibited”.

The values above are taken from patent publication US20250228801A1, “USE OF Galectin-1 INHIBITOR IN PREPARATION OF DRUG FOR TREATING PULMONARY FIBROSIS” (Institute of Basic Medical Sciences, CAMS, priority 2024, published 2025).
